According to ChEMBL document CHEMBL3507680, “University of Dundee, Gates Library screen for HepG2 cell viability”:

Experiment: Human HepG2 cell viability assay in 384 well format
Type: toxicity, cell-based
Design: dose 125 nL, time 70.5 hour; cytotoxicity at 70.5 h: concentration not given beside the values
Conditions: HepG2 cells, read-out: Inhibition

Row | SMILES | cytotoxicity at 70.5 h [%]
1 | Cc1cccc(CN2CCC3(CCCN(C(=O)c4ccsc4)C3)C2=O)n1 (stereo unspecified) | 5.46
2 | NC(=O)Nc1cccc(CNC(=O)CCCc2ccccc2)c1 | 18
3 | CNC(=O)[C@@H]1C[C@H]2CN(C(=O)c3ccco3)C[C@H]2N1C(C)C | -10.2
4 | CCn1cc(S(=O)(=O)Nc2nc3c(s2)CCCC3)cn1 | -5.28
5 | CCC[C@@H]1CN(Cc2ccccc2OC(F)(F)F)C[C@H]1NC(C)=O | -20
6 | O=C(c1nc2c(o1)CN(CC1CC1)C2)N1CCCC1 | -13.1
7 | CCOc1ccc(C(=O)N2Cc3cnc(CC(C)C)nc3C2)o1 | -4.06
8 | CCc1c(C)n(C)c2nc3ccccc3n2c1=O | 8.75
9 | O=C1COC2(CCN(Cc3ccco3)CC2)CN1Cc1cccnc1 | -7.11
10 | CCSCc1nc(O)c2nnn(C3CCN(Cc4ccoc4)CC3)c2n1 | -14.9
11 | CCCOCCNc1nc2c(s1)c(C)nn2C | 24.8
12 | O=C(NCc1sc2ccccc2c1Cl)c1cc2n(n1)CCNC2 | 18.3
13 | CS(=O)(=O)Cc1ccc(CNC(=O)c2cccnc2O)cc1 | 9.83
14 | Cc1cccc(CNC[C@H]2COCc3nc4cccnc4n32)n1 | -9.5
15 | Cn1cc(N2CCC(NC(=O)c3ccccc3F)C2=O)cn1 (stereo unspecified) | -1.23
16 | Cc1nc(CN2CCCN(C(=O)C3(C#N)CCCCC3)CC2)cs1 | -16.4
17 | CC(C)SCC(=O)N1CCc2c(nc(N(C)C)nc2N(C)C)C1 | -9.5
18 | Cc1nn(C)cc1-c1ccnc(N(C)Cc2ccon2)n1 | -5.47
19 | O=C(CCc1ccc(-c2ccccc2)[nH]1)N1CCCC(n2ccnc2)C1 (stereo unspecified) | -1.63
20 | CSCC(=O)N1CCCC(n2ccnc2C(C)C)C1 (stereo unspecified) | -7.04
21 | COC1CN(C(=O)OCC(C)C)CCC(=O)N(C)c2ccccc21 (stereo unspecified) | -4.55
22 | CN(Cc1ccc2nsnc2c1)CC1(O)CNCCOC1 (stereo unspecified) | -6.32
23 | Cc1ccc2cnn(CCC(=O)Nc3nc(C)c(C)s3)c2c1 | 4.56
24 | COCCN(Cc1ccoc1)S(=O)(=O)c1ccc(F)c(C)c1 | -11

Row | SMILES | cytotoxicity at 70.5 h [%]
25 | COCCCN(Cc1ccncc1)C(=O)CSc1ccc(F)cc1 | -5.19
26 | NC(=O)C1(Cc2ccc(-c3ccccc3)cc2)CCCNC1 (stereo unspecified) | -1.37
27 | CSc1[nH]nc(NC(=O)c2cccnc2)c1C#N | -5.13
28 | CCc1nc(C)c(C(C)N(C)CCc2ccncc2)s1 (stereo unspecified) | 0.87
29 | O=C(c1ccco1)N1C[C@@H]2OCCN(c3ncccn3)[C@@H]2C1 | -13.6
30 | CCn1c(C)cc(C(=O)N2C[C@@H](C(=O)O)[C@H](c3ccccc3C)C2)c1C | -8.47
31 | CS(=O)(=O)N1CCO[C@@H]2CN(Cc3ccncc3)C[C@@H]2C1 | -5.73
32 | Cc1cnn(CCNCC(=O)N2CCN(c3ccccn3)CC2)c1 | 8.76
33 | CCn1cnnc1CNC(=O)N(C)C(C)c1cccs1 (stereo unspecified) | -0.961
34 | COc1ccc(C(=O)Cn2cnnc2[S+](C)[O-])cc1Cl (stereo unspecified) | -3.44
35 | CC(C)C1CN(C(=O)c2ccsc2)CCS1 (stereo unspecified) | -9.62
36 | C1CCN(CCN2CCCCC2C2OCCO2)CC1 (stereo unspecified) | 3.91
37 | CN1CC[C@]2(CN(C(=O)c3ccc[nH]3)C[C@H]2c2ccccc2)C1=O | -3.54
38 | COc1cc2c(cc1CNCc1ccnc(-n3cccn3)c1)OC(C)C2 (stereo unspecified) | -12.6
39 | NC(=O)CCCNC(=O)COc1ccccc1C(F)(F)F | -5.37
40 | CN(C)c1ncccc1CNS(=O)(=O)c1c(F)cccc1F | -8.75
41 | CCC(C)(NCC(N)=O)c1nccs1 (stereo unspecified) | -4.9
42 | CCOc1ncccc1C(=O)N(C)C1CCN(c2ccccn2)CC1 | 2.78
43 | Cc1noc(C)c1C(=O)NCc1ccc(N2CCOC(C)C2)nc1 (stereo unspecified) | 4.56
44 | CC(CNS(=O)(=O)CCCC#N)c1ccsc1 (stereo unspecified) | -3.18
45 | CC(=O)N1CCC(c2ccnc(Nc3cncnc3)n2)CC1 | -8.15
46 | CN(C)C(=O)c1cccc(CN2CCOC(Cn3cncn3)C2)c1 (stereo unspecified) | -4.81
47 | COCCN1CCC2(COCc3c(C)nc(N4CCOCC4)nc32)C1 (stereo unspecified) | -1.01
48 | O=C(c1sccc1C1CC1)N1CCN(c2cnccn2)CC1 | -11.8

Row | SMILES | cytotoxicity at 70.5 h [%]
49 | O=C(c1ccc[nH]1)N1CCC2(CC1)CC(Oc1cccnc1)CO2 (stereo unspecified) | 25
50 | Cc1ncc(-c2ccnc(NCCO)n2)c(C2CCCCC2)n1 | 21.9
51 | CN(CC(=O)N1CCCC1c1cnn(C)c1)c1ccc(Cl)cn1 (stereo unspecified) | 3.73
52 | Cc1oncc1C(=O)N1CCC2(CCN(Cc3cccc(F)c3)C2=O)C1 (stereo unspecified) | -2.01
53 | CN(CC(=O)N1CCCC1)C(=O)Cc1csc(-c2ncccn2)n1 | -1.25
54 | Cc1nc(CN2CCCn3nc(CNC(=O)C4CCC4)cc3C2)co1 | 0.506
55 | Cc1nc(CN(C)C(=O)Nc2cnn(CC3CCCO3)c2)cs1 (stereo unspecified) | -1.56
56 | COc1ccc(CNC(=O)Cn2ccc3sccc3c2=O)cc1 | 12.8
57 | CCS(=O)(=O)N1CCCC(c2nccn2Cc2ccccn2)C1 (stereo unspecified) | -2.1
58 | Cc1ccc(NC(=O)c2coc(C)n2)c(C)c1 | -6.55
59 | CCOCC1CN(C(=O)C2=CCCC2)Cc2cnn(CC)c21 (stereo unspecified) | -16.7
60 | Cc1ccc(OCCCC(=O)NC(C)c2nnc3n2CCC3)cc1 (stereo unspecified) | -0.817
61 | Cc1cc(C)n(CC2CN(Cc3noc(C4CC4)n3)CCO2)n1 (stereo unspecified) | -6.69
62 | Cn1cc(CNC2CCCOc3c(Cl)cccc32)cn1 (stereo unspecified) | 3.49
63 | O=C(NCCn1ccnc1)c1ccn(-c2ccccc2F)n1 | 13.4
64 | CCOc1cc2c(cc1CN1CCC3(CCCNC3=O)C1)CCC2 (stereo unspecified) | 30
65 | c1cnc(Nc2cncc(C3CCCN(c4cnccn4)C3)n2)nc1 (stereo unspecified) | -5.35
66 | COCC1CCN(Cc2cc(O)c3c(C)ccc(C)c3n2)CC1 | 17.7
67 | CN(Cc1cnn(C)c1)C(=O)C1CCCN1Cc1ccccn1 (stereo unspecified) | 26.2
68 | CNc1cc(N2CCCC2CNCc2ccccn2)ncn1 (stereo unspecified) | 14.8
69 | Cc1ncc(CNC(=O)NC2CCN(C3CCCC3)CC2)s1 | -6.29
70 | Cc1ccc(C(=O)Nc2ccc(N(C)C)cn2)n1C | 7.03
71 | CC(C)N(CC(=O)Nc1cccc(C#N)c1)C1CC1 | -4.01
72 | Cc1oc(-c2cccs2)nc1C(=O)N1CCCC1Cn1cccn1 (stereo unspecified) | -6.8

Row | SMILES | cytotoxicity at 70.5 h [%]
73 | Cc1noc(CCNC(=O)c2ccc(Br)c(S(=O)(=O)N(C)C)c2)n1 | -4.79
74 | COc1cccc(CN2CCCC(Cn3nc(C)nc3C)C2)c1 (stereo unspecified) | -1.83
75 | COCCOc1ccccc1CNCc1c(C)nn(C)c1N(C)C | -0.188
76 | CCC(CO)N(Cc1ccsc1)Cc1ccccc1C(=O)O (stereo unspecified) | -8.61
77 | CCSCCNC(=O)c1cnc(-c2ccccc2)nc1O | 7.82
78 | CN(C)C(=O)COC1COC2(CCN(CC3CC3)CC2)C1 (stereo unspecified) | -5.8
79 | CN(CC1CCCCO1)c1nncc(-c2cccc(F)c2)n1 (stereo unspecified) | -3.62
80 | Cc1ccc(OCC(=O)N(C)Cc2ccc(F)cc2)cn1 | -8.48
81 | O=C(NC1CCN(Cn2nc(-c3ccccc3)oc2=O)CC1)C1CC1 | 1.77
82 | Cc1cccc2c1OCCCC2NCc1nnc2n1CCCCC2 (stereo unspecified) | -7.8
83 | F[C@@H]1CN(CC2CCCCC2)C[C@@H]1OCc1nc2ccccc2o1 | 1.33
84 | Cc1cnn(C2CCCN(C(=O)CCc3cscn3)C2)c1 (stereo unspecified) | 2.26
85 | Cn1cnnc1C1CCCN(C(=O)Cc2ccc3c(c2)OCCO3)C1 (stereo unspecified) | 0.026
86 | CN1CCC(Cc2noc(CC3CC3)n2)CC1 | -7.67
87 | O=C(c1cnns1)N1CCN(c2ccc(F)cc2Cl)CC1 | 4.28
88 | CCN(CC)C(=O)CC[C@@H]1CNC(=O)[C@@H]2C[C@H](NC(=O)C3CC3)CN12 | -2.96
89 | Cn1ccc(C(=O)N2CCN(c3ccccn3)CC2)cc1=O | -1.81
90 | Cc1nc(C)c(C(=O)N2CCCC(n3ccnc3C)C2)s1 (stereo unspecified) | -3.06
91 | COc1ccc(CN(C)CC(=O)NC2(C)CCS(=O)(=O)C2)cc1F (stereo unspecified) | -0.516
92 | OCCCN1CCCC1c1ccc(Br)cc1 (stereo unspecified) | -9.27
93 | Cc1n[nH]c(C)c1CCc1n[nH]c(=O)n1Cc1cccs1 | -0.375
94 | Cn1c2c(ccc1=O)CC(NC(=O)c1ccsc1)CC2 (stereo unspecified) | -2.29
95 | COC(=O)CC(NC(=O)CCn1cccn1)c1ccc(C)cc1 (stereo unspecified) | -0.705
96 | Cc1cccc(CO[C@@H]2C[C@H]3CN(c4ncccn4)CCN3C2)n1 | -1.58

Row | SMILES | cytotoxicity at 70.5 h [%]
97 | CC(NC(=O)NCCc1nc(C(F)(F)F)cs1)C(=O)N(C)C (stereo unspecified) | -7.19
98 | COc1ccc(NCc2nc(=O)n(CCC(C)C)[nH]2)cc1 | -14.5
99 | COc1cccc(-c2c[nH]c(C)n2)c1F | -11.2
100 | COc1cccc(CCC2CCCN(C(=O)c3n[nH]c4c3CCC4)C2)c1 (stereo unspecified) | 0.453
101 | Cc1cccc(NC(=O)C2CSc3ncc(C)c(=O)n3C2)n1 (stereo unspecified) | -9.15
102 | CCOc1ncnc2c1CCN(c1cc(C(F)(F)F)ncn1)CC2 | 3.85
103 | COc1ccc(C(C(=O)O)N(C)Cc2c(C)nn(C)c2C)c(C)c1 (stereo unspecified) | -10
104 | Cc1cc(N2CCN(C3CCOCC3)CC(C(=O)N(C)C)C2)ncn1 (stereo unspecified) | -6.48
105 | CC(C)CN1CCn2c(nc3cc(C(=O)NC(C)C)ccc32)C1 | -11.8
106 | COc1ccc(Nc2nc(N)c(C(C)=O)s2)cc1Cl | -9.72
107 | Cc1nc2c(c(N3CC=CC3)n1)CCN(Cc1ccoc1)CC2 | -2.75
108 | CC(C)=CCN1CCC2(CC1)c1ccccc1[C@@H](N1CCSCC1)[C@@H]2O | -4.97
109 | O=C(NCc1ccc2c(c1)OCO2)Nc1cccnc1N1CCCC1 | -2.2
110 | CN(C)C(=O)C1CN(Cc2nccs2)CCN(S(C)(=O)=O)C1 (stereo unspecified) | -4.9
111 | COc1cccc([C@@]2(O)CC[C@@H]3CN(C(=O)c4cn(C)nc4C)C[C@@H]32)c1 | 1.27
112 | COc1ccc(C(=O)NCC(C)(O)CCc2ccccc2)cc1 (stereo unspecified) | 3.78
113 | Cc1ccccc1-n1nc(C)c(CN(C)C(C)Cc2ccccn2)c1C (stereo unspecified) | 0.642
114 | CCN1CCN(c2nc(O)cc(Cc3ccccc3F)n2)CC1 | -0.665
115 | COCCN1C[C@@H]2CN(c3cc(OC)ncn3)CCC[C@]2(C(=O)O)C1 | 9.96
116 | Cc1cc(-c2n[nH]c3c2CN(S(=O)(=O)c2ccsc2)CC3)c(C)o1 | -9.27
